Consider two molecules from publication PMC11447181 (Nature Communications, 2024).

Usually ΔTm stands for the shift of the melting midpoint relative to a reference. The term Km denotes the substrate concentration at which the rate is half of its maximum.

Where “and” joins values, the source holds several entries; their conditions need not be identical. Equal values may be shown once. Entries after “also recorded” stand apart in the source; their conditions may differ.

In data set [1] the target is T1, hSLC19A3-wt overexpressed in Expi293F cells (Homo sapiens, UniProt Q9BZV2).
T1 construct: full-length, wildtype human SLC19A3; expressed in transfected cells; host or cells: Expi293F
The data set is described as follows: Mass spectrometry-based cellular thiamine-d3 uptake assay. The settings on record: 200 μM compound, 2 μM thiamine-d3, 5 min, n = 3. The class given is cell-based. The protocol:
The cells were then pelleted for 5 min at 250×g and resuspended in 1×PBS (pH 7.4) at a cell density of 2 million cells per mL. The cell suspension was subsequently transferred to a 96-deep well plate in three technical replicates per condition (n = 3, 1 mL per well, corresponding to 2 million cells per condition). 200 μM of the selected compounds were added to the respective wells and the cells were incubated for 1 min on a shaking platform. […] Afterwards, the cells were pelleted for 5 min at 500×g and washed 3× with 1 mL 1×PBS (pH7.4), before transferring them to a fresh 96-deep well plate. The cell pellets were stored at –70 °C. For the LC-MS/MS analysis, the samples were extracted by adding 500 µL of a mixture of H2O:MeOH:ACN (1:1:1, v/v), containing 5% (v/v) formic acid. After vortexing and ultrasonication in a water bath for 5 min at 4 °C, samples were incubated for 20 min at –20 °C. […] The supernatants were then transferred for LC-MS analysis, which was initiated within one hour after sample preparation. LC-MS/MS analysis was performed on a Vanquish UHPLC system coupled to an Orbitrap Exploris 240 high-resolution mass spectrometer (Thermo Fisher Scientific, MA, USA) in positive ESI (electrospray ionization) mode. Chromatographic separation was carried out on an Atlantis Premier BEH Z-HILIC column (Waters, MA, USA; 2.1 mm × 100 mm, 1.7 µm) at a flow rate of 0.25 mL/min. The mobile phase consisted of water:acetonitrile (9:1, v/v; mobile phase phase A) and acetonitrile:water (9:1, v/v; mobile phase B), which were modified with a total buffer concentration of 10 mM ammonium formate. The aqueous portion of each mobile phase was adjusted to pH 3.0 via addition of formic acid. The following gradient (8 min total run time including re-equilibration) was applied (time [min]/%B): 0/90, 3/85, 3.5/60, 4/60, 5/90, 8/90. Column temperature was maintained at 40 °C, the autosampler was set to 4 °C and sample injection volume was set to 3 µL. Analytes were recorded via a full scan with a mass resolving power of 120,000 over a mass range from 60 to 900 m/z (scan time: 100 ms, RF lens: 70%).
All experimental samples were measured in a randomized manner. Pooled quality control (QC) samples were prepared by mixing equal aliquots from each processed sample. Multiple QCs were injected at the beginning of the analysis in order to equilibrate the analytical system. A QC sample was analyzed after every 6th experimental sample to monitor instrument performance throughout the sequence. For determination of background signals and subsequent background subtraction, an additional processed blank sample was recorded. Data was processed using TraceFinder 5.1 and raw peak area data was exported for relative metabolite quantification.

Data set [2] has as its system SLC19A3. Conditions: cited from earlier work.
The conditions of data set [3]: clinical trial ID NCT01437787; cited from earlier work.
Data set [4] has as its target T2, hSLC19A3-wt (Homo sapiens, UniProt Q9BZV2).
T2 construct: full-length, wildtype human SLC19A3; made in house; host or cells: Expi293F
The data set is described as follows: nanoDSF thermal shift assay / apparent binding affinity, wildtype transporter.

Data set [5] deals with hSLC19A3 N297A (Homo sapiens, UniProt Q9BZV2, N297A). The settings on record: N297A mutant. The protocol: (§1) The thermal stability of the hSLC19A3 constructs and their binding affinities for small molecules were determined by nanoDSF, using a Prometheus NT.48 (NanoTemper Technologies). For sample preparation, the protein was diluted to a final concentration of 4 μM in SEC buffer and supplied with the respective compounds in a concentration range from 2 μM to 2 mM. Before measurement, the samples were incubated for 30 min at room temperature. Melting scans were performed at a temperature range from 20 to 95 °C with a temperature increment of 1 °C per minute. Thermal unfolding curves were recorded by measuring the ratio of the tryptophan-fluorescence at 350 nm (F350) and 330 nm (F330). The protein melting temperature (Tm) of a given sample was determined as the inflection point of the thermal unfolding curves, or the local maximum of its first derivative. The measured curves were analysed using the manufacturer’s software (PR.ThermControl, v 2.1.2, NanoTemper Technologies). Based on the determined Tm values, ligand induced thermal shifts (ΔTm) were determined as the difference between the melting temperature of the ligand-bound state (Tm) and the apo state (Tm^apo).
As R, Tstd and L are known and the ΔTm and Tm^apo are experimentally determined, non-linear curve fitting can be used to estimate Ea1 and Kd,app. […]

Data set [6] addresses hSLC19A3 F56A (Homo sapiens, UniProt Q9BZV2, F56A). The data set is described as follows: biochemical. The method, then: as §1
(§2) As R, Tstd and L are known and the ΔTm and Tm^apo are experimentally determined, non-linear curve fitting can be used to estimate Ea1 and Kd,app. The fitting was performed using symfit (v. 0.5.3), as described in Kotov et al., based on theoretical considerations formulated in Hall, 2019[56].

In data set [7] the target is hSLC19A3 Q300A (Homo sapiens, UniProt Q9BZV2, Q300A). The data set is described as follows: biochemical. The protocol:
as §1, §2

Data set [8] has as its target hSLC19A3 Thr422Ala (Homo sapiens, UniProt Q9BZV2, T422A). The data set is described as follows: biochemical. The protocol: as §1, §2
Data set [9] concerns the target hSLC19A3 W59A (Homo sapiens, UniProt Q9BZV2, W59A). The data set is described as follows: biochemical. The method, then: as §1, §2
Data set [10] deals with hSLC19A3 Y113A (Homo sapiens, UniProt Q9BZV2, Y113A). The data set is described as follows: biochemical. The method, then:
as §1, §2

The target in data set [11] is hSLC19A3 Y151A (Homo sapiens, UniProt Q9BZV2, Y151A). The data set is described as follows: biochemical. The method, then: as §1, §2
The target in data set [12] is hSLC19A3 Y151F (Homo sapiens, UniProt Q9BZV2, Y151F). The data set is described as follows: biochemical. The method, then:
as §1, §2

Data set [13] has as its target hSLC19A3-E110Q (Homo sapiens, UniProt Q9BZV2, E110Q). The data set is described as follows: biochemical. Conditions: Kd,app for thiamine, E110Q mutant; n = 3. The protocol:
as §1, §2

The target of data set [14] is hSLC19A3-Glu320Gln (Homo sapiens, UniProt Q9BZV2, E320Q). The data set is described as follows: biochemical. The method, then: as §1, §2
In data set [15] the target is hSLC19A3-Glu32Lys (Homo sapiens, UniProt Q9BZV2, E32K). The data set is described as follows: biochemical. Conditions: E32K mutant. The protocol:
as §1, §2

Data set [16] deals with hSLC19A3-Lys44Glu (Homo sapiens, UniProt Q9BZV2, K44E). The data set is described as follows: biochemical. The method, then:
as §1, §2

For data set [17], the target named is hSLC19A3-gf (N45Q, N166Q) (Homo sapiens, UniProt Q9BZV2, N166Q/N45Q). The data set is described as follows: biochemical. The protocol: as §1, §2
The test system of data set [18] is MFSD1. The settings on record: negative control; thiamine titration 1.95 μM to 2 mM. The protocol:
as §1

The test system of data set [19] is SLC19A2. The settings on record: read-out: Km (thiamine uptake); cited from earlier work.
For data set [20], the system named is OCT1 (SLC22A1). The settings on record: read-out: Km (thiamine uptake); cited from earlier work.

hSLC19A3-E110Q, sequence (Q9BZV2 with tags, fused parts or gaps E110Q): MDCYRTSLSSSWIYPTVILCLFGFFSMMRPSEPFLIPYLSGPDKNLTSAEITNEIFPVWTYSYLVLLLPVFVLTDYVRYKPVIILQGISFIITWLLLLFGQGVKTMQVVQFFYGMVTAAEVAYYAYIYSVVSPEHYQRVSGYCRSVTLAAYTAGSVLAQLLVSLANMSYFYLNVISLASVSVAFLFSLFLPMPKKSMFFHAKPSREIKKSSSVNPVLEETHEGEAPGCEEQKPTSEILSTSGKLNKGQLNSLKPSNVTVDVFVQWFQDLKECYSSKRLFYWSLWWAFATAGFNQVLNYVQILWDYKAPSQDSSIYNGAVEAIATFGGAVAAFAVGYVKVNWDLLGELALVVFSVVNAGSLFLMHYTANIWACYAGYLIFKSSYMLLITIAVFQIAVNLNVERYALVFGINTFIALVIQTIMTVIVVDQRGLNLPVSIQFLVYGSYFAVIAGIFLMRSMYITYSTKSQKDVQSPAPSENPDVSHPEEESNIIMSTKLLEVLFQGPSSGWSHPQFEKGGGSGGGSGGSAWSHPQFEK
T2 sequence (Q9BZV2 with tags, fused parts or gaps): as the sequence (Q9BZV2 with tags, fused parts or gaps E110Q) above, with Q110E counted along it
hSLC19A3-Glu32Lys, sequence (Q9BZV2 with tags, fused parts or gaps E32K): as the sequence (Q9BZV2 with tags, fused parts or gaps E110Q) above, with E32K, Q110E counted along it
hSLC19A3 Y113A, sequence (Q9BZV2 with tags, fused parts or gaps Y113A): as the sequence (Q9BZV2 with tags, fused parts or gaps E110Q) above, with Q110E, Y113A counted along it
hSLC19A3-Lys44Glu, sequence (Q9BZV2 with tags, fused parts or gaps K44E): as the sequence (Q9BZV2 with tags, fused parts or gaps E110Q) above, with K44E, Q110E counted along it
hSLC19A3-gf (N45Q, N166Q), sequence (Q9BZV2 with tags, fused parts or gaps N45Q/N166Q): as the sequence (Q9BZV2 with tags, fused parts or gaps E110Q) above, with N45Q, Q110E, N166Q counted along it
hSLC19A3 W59A, sequence (Q9BZV2 with tags, fused parts or gaps W59A): as the sequence (Q9BZV2 with tags, fused parts or gaps E110Q) above, with W59A, Q110E counted along it
hSLC19A3-Glu320Gln, sequence (Q9BZV2 with tags, fused parts or gaps E320Q): as the sequence (Q9BZV2 with tags, fused parts or gaps E110Q) above, with Q110E, E320Q counted along it
hSLC19A3 Y151F, sequence (Q9BZV2 with tags, fused parts or gaps Y151F): as the sequence (Q9BZV2 with tags, fused parts or gaps E110Q) above, with Q110E, Y151F counted along it
T1 sequence (Q9BZV2 with tags, fused parts or gaps): as the sequence (Q9BZV2 with tags, fused parts or gaps E110Q) above, with Q110E counted along it
hSLC19A3 Y151A, sequence (Q9BZV2 with tags, fused parts or gaps Y151A): as the sequence (Q9BZV2 with tags, fused parts or gaps E110Q) above, with Q110E, Y151A counted along it
hSLC19A3 F56A, sequence (Q9BZV2 with tags, fused parts or gaps F56A): as the sequence (Q9BZV2 with tags, fused parts or gaps E110Q) above, with F56A, Q110E counted along it
hSLC19A3 Q300A, sequence (Q9BZV2 with tags, fused parts or gaps Q300A): as the sequence (Q9BZV2 with tags, fused parts or gaps E110Q) above, with Q110E, Q300A counted along it
hSLC19A3 N297A, sequence (Q9BZV2 with tags, fused parts or gaps N297A): as the sequence (Q9BZV2 with tags, fused parts or gaps E110Q) above, with Q110E, N297A counted along it
hSLC19A3 Thr422Ala, sequence (Q9BZV2 with tags, fused parts or gaps T422A): as the sequence (Q9BZV2 with tags, fused parts or gaps E110Q) above, with Q110E, T422A counted along it

For `Cc1cnc(Nc2ccc(OCCN3CCCC3)cc2)nc1Nc1cccc(S(=O)(=O)NC(C)(C)C)c1` [fedratinib], in [1], the “inhibition of thiamine uptake through hSLC19A3, in words” value is given as “strongly suppressed the thiamine transport activity of hSLC19A3”. In data set [2], the “substrate status at the transporter” value is recorded as “xenobiotic substrates of the transporter”. The “adverse event in patients” value in data set [3] is reported as “induced the development of Wernicke’s encephalopathy”.
As to `Cc1ncc(C[n+]2csc(CCO)c2C)c(N)n1` [thiamine], the Kd in data set [4] (Kd,app (apparent dissociation constant), concentration-dependent thermal shifts, fitted for 25 °C, n = 3, mean ± s.d.) was ~12 µM and 12.7 µM; in [6] it was 4 ± 0.3 µM; in data set [7] it was 5.6 ± 1.4 µM; in data set [8], 172 ± 35 µM; in [9] it was 8.3 ± 1 µM; in data set [10], 15.5 ± 2 µM. Further, the Kd is 17.8 ± 1.8 µM in [11]; 18.7 ± 9.1 µM in [12]; 85 µM and 85.2 µM and ~85 µM in data set [13]; 284 ± 45 µM in [14]; 145 µM in [15] (Kd,app for thiamine, n = 3); 2.1 ± 0.1 µM in data set [16]. In addition, the Kd in data set [17] amounted to 10.4 ± 0.9 µM. Moreover, the shift in melting temperature (ΔTm) at 2000 µM in data set [4] (read-out: ΔTm (thermal stabilisation of hSLC19A3)) was 10.9 ± 0.3 °C. The “thermal shift / interaction with hSLC19A3, in words” value in data set [4] (thermal shift screen at 20 μM and 200 μM compound) is given as “induces a strong stabilisation; also recorded: strong stabilisation of the transporter”. In addition, the “loss in binding affinity for thiamine versus wildtype” value in data set [5] is given as ~ 250 fold. Moreover, the “effect of mutation on thiamine binding, in words” value in data set [9] (W59A mutant (aromatic clamp)) and in data set [10] (Y113A mutant (aromatic clamp)) was “did not impair thiamine binding” in each case. Further, the “effect of mutation on thiamine affinity, in words” value in [12] (Y151F mutant) is “no strong effect on the affinity for thiamine was observed”. In data set [14] (E320Q mutant), the “decrease in affinity for thiamine versus wildtype” value was 20 fold. The “drop in affinity for thiamine versus wildtype” value in data set [15] is 10 fold and > 10 fold. The “affinity for thiamine versus wildtype” value in [16] (K44E mutant) was “six-fold higher affinity”. In addition, in data set [17] (thermal stability experiments), the “effect of the glycosylation-site mutations on thiamine binding, in words” value is on record as “did not show any interference of these mutations with thiamine binding”. Besides, the “response to thiamine, in words” value in data set [18] is “shows no response to thiamine”. Moreover, the Km in data set [2] (read-out: Km (thiamine uptake)) was 2 to 7 µM; in data set [19], 2 to 7 µM; in data set [20], ~780 µM.
